Reference: the NIST ThermoML archive (doi:10.1021/je400332j)
Numbers after ± are expanded uncertainties.

Experiment: xn = mol fraction of the nth substance listed
Conditions: 101 kPa, Liquid; for viscosity: Concentric cylinders viscometry; for mass density: Vibrating tube method

CCCCCCn1cc[n+](C)c1.F[B-](F)(F)F [1-hexyl-3-methylimidazolium tetrafluoroborate] + CCn1cc[n+](C)c1.F[B-](F)(F)F
Conditions | mass density [kg/m3] | viscosity [mPa·s]
293.15 K, x2 = 0 | 1147.5 ± 1.1 | 280.4 ± 23
293.15 K, x2 = 0.1009 | 1157.3 ± 1.1 | 244.3 ± 20
293.15 K, x2 = 0.2005 | 1168.1 ± 1.1 | 210.7 ± 17
293.15 K, x2 = 0.3003 | 1179.5 ± 1.1 | 179.6 ± 15
293.15 K, x2 = 0.4001 | 1191.4 ± 1.1 | 151.7 ± 12
293.15 K, x2 = 0.4999 | 1204.3 ± 1.1 | 127.1 ± 10
293.15 K, x2 = 0.6007 | 1218.1 ± 1.1 | 105 ± 8.5
293.15 K, x2 = 0.7004 | 1232.7 ± 1.1 | 86.22 ± 7
293.15 K, x2 = 0.8001 | 1248.5 ± 1.1 | 69.78 ± 5.6
293.15 K, x2 = 0.8998 | 1265.3 ± 1.1 | 56.02 ± 4.5
298.15 K, x2 = 0 | 1144.1 ± 1.1 | 206.3 ± 17
298.15 K, x2 = 0.1009 | 1153.9 ± 1.1 | 180.8 ± 15
298.15 K, x2 = 0.2005 | 1164.7 ± 1.1 | 157.2 ± 13
298.15 K, x2 = 0.3003 | 1176.1 ± 1.1 | 135.1 ± 11
298.15 K, x2 = 0.4001 | 1188 ± 1.1 | 115.2 ± 9.4
298.15 K, x2 = 0.4999 | 1200.8 ± 1.1 | 97.48 ± 7.9
298.15 K, x2 = 0.6007 | 1214.6 ± 1.1 | 81.5 ± 6.6
298.15 K, x2 = 0.7004 | 1229.1 ± 1.1 | 67.79 ± 5.5
298.15 K, x2 = 0.8001 | 1244.9 ± 1.1 | 55.7 ± 4.5
298.15 K, x2 = 0.8998 | 1261.7 ± 1.1 | 45.42 ± 3.7
303.15 K, x2 = 0 | 1140.6 ± 1 | 154.9 ± 13
303.15 K, x2 = 0.1009 | 1150.5 ± 1.1 | 136.9 ± 11
303.15 K, x2 = 0.2005 | 1161.2 ± 1.1 | 119.8 ± 9.8
303.15 K, x2 = 0.3003 | 1172.5 ± 1.1 | 103.8 ± 8.4
303.15 K, x2 = 0.4001 | 1184.4 ± 1.1 | 89.33 ± 7.2
303.15 K, x2 = 0.4999 | 1197.2 ± 1.1 | 76.33 ± 6.2
303.15 K, x2 = 0.6007 | 1211 ± 1.1 | 64.52 ± 5.2
303.15 K, x2 = 0.7004 | 1225.5 ± 1.1 | 54.31 ± 4.4
303.15 K, x2 = 0.8001 | 1241.2 ± 1.1 | 45.2 ± 3.6
303.15 K, x2 = 0.8998 | 1257.9 ± 1.1 | 37.38 ± 3
308.15 K, x2 = 0 | 1137.2 ± 1 | 118.7 ± 9.7
308.15 K, x2 = 0.1009 | 1147.1 ± 1.1 | 105.5 ± 8.6
308.15 K, x2 = 0.2005 | 1157.8 ± 1.1 | 92.98 ± 7.5
308.15 K, x2 = 0.3003 | 1169 ± 1.1 | 81.23 ± 6.6
308.15 K, x2 = 0.4001 | 1180.9 ± 1.1 | 70.51 ± 5.7
308.15 K, x2 = 0.4999 | 1193.6 ± 1.1 | 60.8 ± 4.9
308.15 K, x2 = 0.6007 | 1207.4 ± 1.1 | 51.94 ± 4.2
308.15 K, x2 = 0.7004 | 1221.8 ± 1.1 | 44.18 ± 3.6
308.15 K, x2 = 0.8001 | 1237.5 ± 1.1 | 37.22 ± 3
308.15 K, x2 = 0.8998 | 1254.2 ± 1.1 | 31.18 ± 2.5
313.15 K, x2 = 0 | 1133.7 ± 1 | 92.56 ± 7.5
313.15 K, x2 = 0.1009 | 1143.6 ± 1.1 | 82.73 ± 6.7
313.15 K, x2 = 0.2005 | 1154.3 ± 1.1 | 73.45 ± 5.9
313.15 K, x2 = 0.3003 | 1165.5 ± 1.1 | 64.64 ± 5.2
313.15 K, x2 = 0.4001 | 1177.4 ± 1.1 | 56.57 ± 4.6
313.15 K, x2 = 0.4999 | 1190.1 ± 1.1 | 49.22 ± 4
313.15 K, x2 = 0.6007 | 1203.8 ± 1.1 | 42.45 ± 3.4
313.15 K, x2 = 0.7004 | 1218.2 ± 1.1 | 36.47 ± 2.9
313.15 K, x2 = 0.8001 | 1233.8 ± 1.1 | 31.06 ± 2.5
313.15 K, x2 = 0.8998 | 1250.4 ± 1.1 | 26.32 ± 2.1
318.15 K, x2 = 0 | 1130.3 ± 1 | 73.37 ± 5.9
318.15 K, x2 = 0.1009 | 1140.3 ± 1 | 65.95 ± 5.3
318.15 K, x2 = 0.2005 | 1150.9 ± 1.1 | 58.94 ± 4.8
318.15 K, x2 = 0.3003 | 1162 ± 1.1 | 52.24 ± 4.2
318.15 K, x2 = 0.4001 | 1173.9 ± 1.1 | 46.08 ± 3.7
318.15 K, x2 = 0.4999 | 1186.5 ± 1.1 | 40.41 ± 3.3
318.15 K, x2 = 0.6007 | 1200.2 ± 1.1 | 35.16 ± 2.8
318.15 K, x2 = 0.7004 | 1214.6 ± 1.1 | 30.49 ± 2.4
318.15 K, x2 = 0.8001 | 1230.1 ± 1.1 | 26.23 ± 2.1
318.15 K, x2 = 0.8998 | 1246.7 ± 1.1 | 22.48 ± 1.8
323.15 K, x2 = 0 | 1127 ± 1 | 59.03 ± 4.8
323.15 K, x2 = 0.1009 | 1136.9 ± 1 | 53.34 ± 4.3
323.15 K, x2 = 0.2005 | 1147.4 ± 1.1 | 47.98 ± 3.9
323.15 K, x2 = 0.3003 | 1158.5 ± 1.1 | 42.8 ± 3.4
323.15 K, x2 = 0.4001 | 1170.4 ± 1.1 | 38.02 ± 3.1
323.15 K, x2 = 0.4999 | 1183 ± 1.1 | 33.6 ± 2.7
323.15 K, x2 = 0.6007 | 1196.6 ± 1.1 | 29.48 ± 2.4
323.15 K, x2 = 0.7004 | 1211 ± 1.1 | 25.79 ± 2.1
323.15 K, x2 = 0.8001 | 1226.4 ± 1.1 | 22.4 ± 1.8
323.15 K, x2 = 0.8998 | 1242.9 ± 1.1 | 19.38 ± 1.6
328.15 K, x2 = 0 | 1123.6 ± 1 | 48.16 ± 3.9
328.15 K, x2 = 0.1009 | 1133.5 ± 1 | 43.73 ± 3.5
328.15 K, x2 = 0.2005 | 1144 ± 1.1 | 39.57 ± 3.2
328.15 K, x2 = 0.3003 | 1155.1 ± 1.1 | 35.51 ± 2.9
328.15 K, x2 = 0.4001 | 1166.9 ± 1.1 | 31.77 ± 2.6
328.15 K, x2 = 0.4999 | 1179.4 ± 1.1 | 28.27 ± 2.3
328.15 K, x2 = 0.6007 | 1192.9 ± 1.1 | 25.02 ± 2
328.15 K, x2 = 0.7004 | 1207.4 ± 1.1 | 22.05 ± 1.8
328.15 K, x2 = 0.8001 | 1222.7 ± 1.1 | 19.31 ± 1.6
328.15 K, x2 = 0.8998 | 1239.2 ± 1.1 | 16.85 ± 1.4
333.15 K, x2 = 0 | 1120.2 ± 1 | 39.71 ± 3.2
333.15 K, x2 = 0.1009 | 1130.1 ± 1 | 36.3 ± 2.9
333.15 K, x2 = 0.2005 | 1140.6 ± 1.1 | 33.02 ± 2.7
333.15 K, x2 = 0.3003 | 1151.6 ± 1.1 | 29.82 ± 2.4
333.15 K, x2 = 0.4001 | 1163.4 ± 1.1 | 26.83 ± 2.2
333.15 K, x2 = 0.4999 | 1176 ± 1.1 | 24.04 ± 1.9
333.15 K, x2 = 0.6007 | 1189.5 ± 1.1 | 21.41 ± 1.7
333.15 K, x2 = 0.7004 | 1203.8 ± 1.1 | 19.03 ± 1.5
333.15 K, x2 = 0.8001 | 1219.1 ± 1.1 | 16.8 ± 1.4
333.15 K, x2 = 0.8998 | 1235.6 ± 1.1 | 14.78 ± 1.2
338.15 K, x2 = 0 | 1116.8 ± 1 | 33.21 ± 2.7
338.15 K, x2 = 0.1009 | 1126.7 ± 1 | 30.47 ± 2.4
338.15 K, x2 = 0.2005 | 1137.2 ± 1 | 27.86 ± 2.2
338.15 K, x2 = 0.3003 | 1148.2 ± 1.1 | 25.3 ± 2
338.15 K, x2 = 0.4001 | 1160 ± 1.1 | 22.92 ± 1.8
338.15 K, x2 = 0.4999 | 1172.5 ± 1.1 | 20.64 ± 1.7
338.15 K, x2 = 0.6007 | 1186 ± 1.1 | 18.52 ± 1.5
338.15 K, x2 = 0.7004 | 1200.2 ± 1.1 | 16.56 ± 1.3
338.15 K, x2 = 0.8001 | 1215.5 ± 1.1 | 14.73 ± 1.2
338.15 K, x2 = 0.8998 | 1231.9 ± 1.1 | 13.05 ± 1.1
343.15 K, x2 = 0 | 1113.4 ± 1 | 28.03 ± 2.3
343.15 K, x2 = 0.1009 | 1123.4 ± 1 | 25.82 ± 2.1
343.15 K, x2 = 0.2005 | 1133.8 ± 1 | 23.74 ± 1.9
343.15 K, x2 = 0.3003 | 1144.8 ± 1.1 | 21.65 ± 1.7
343.15 K, x2 = 0.4001 | 1156.5 ± 1.1 | 19.72 ± 1.6
343.15 K, x2 = 0.4999 | 1169 ± 1.1 | 17.89 ± 1.4
343.15 K, x2 = 0.6007 | 1182.4 ± 1.1 | 16.11 ± 1.3
343.15 K, x2 = 0.7004 | 1196.7 ± 1.1 | 14.52 ± 1.2
343.15 K, x2 = 0.8001 | 1212 ± 1.1 | 13 ± 1.1
343.15 K, x2 = 0.8998 | 1228.3 ± 1.1 | 11.6 ± 0.93
